In patent publication US9051300B2, “Herbicides” (Syngenta Limited, priority 2009, dated 2015):

Experiments:
Format in all cases: in vivo
[1] = test system: Winter Wheat variety 'Hereward'; assay: Crop damage to winter wheat, post-emergence spray; settings: 250 g/ha, no safener, evaluated after 13 days, 100=total damage to plant, 0=no damage
Protocol: Seeds of the Winter Wheat variety ‘Hereward’ were sown in standard soil in pots. After 8 days cultivation under controlled conditions in a glasshouse (at 24/16° C., day/night; 14 hours light; 65% humidity), the plants were sprayed post-emergence with an aqueous spray solution derived from the formulation of the technical active ingredient in acetone/water (50:50) solution containing 0.5% Tween 20 (polyoxyethylene sorbitan monolaurate, CAS RN 9005-64-5). The test plants were then grown in a glasshouse under controlled conditions in a glasshouse (at 24/16° C., day/night; 14 hours light; 65% humidity) and watered twice daily. After 13 days for pre and post-emergence, the test was evaluated (100=total damage to plant; 0=no damage to plant).

[2] = test system: Winter Wheat variety 'Hereward'; assay: Crop damage to winter wheat seed treated with safener cloquintocet mexyl, post-emergence spray; settings: 250 g/ha, seed treated with cloquintocet mexyl 0.5 g/kg seed, evaluated after 13 days, 100=total damage, 0=no damage
Protocol: Seeds of the Winter Wheat variety ‘Hereward’ were seed treated with a wettable powder formulation of the cereal herbicide safener, cloquintocet mexyl, at a rate of 0.5 grams per kilogram of dry seed prior to the initiation of glasshouse testing. One seed was sown per 1.5 inch plastic pot into a sandy loam soil at a depth of 1 cm, 8 days prior to application of the test compounds and was watered and grown under controlled conditions in a glasshouse (at 24/16° C., day/night; 14 hours light; 65% humidity). The plants were sprayed post-emergence with an aqueous spray solution derived from the formulation of the technical active ingredient in acetone/water (50:50) solution containing 0.5% Tween 20 (polyoxyethylene sorbitan monolaurate, CAS RN 9005-64-5). The test plants were then grown in a glasshouse under controlled conditions in a glasshouse (at 24/16° C., day/night; 14 hours light; 65% humidity) and watered twice daily. After 13 days for pre and post-emergence, the test was evaluated (100=total damage to plant; 0=no damage to plant).

[3] = test system: Alopecurus myosuroides (ALOMY); assay: Post-emergence herbicidal activity, glasshouse pot test; settings: 312 h, evaluated after 13 days, 100=total damage to plant, 0=no damage
Protocol: (§1) Seeds of a variety of test species are sown in standard soil in pots. After cultivation for one day (pre-emergence) or after 8 days cultivation (post-emergence) under controlled conditions in a glasshouse (at 24/16° C., day/night; 14 hours light; 65% humidity), the plants are sprayed with an aqueous spray solution derived from the formulation of the technical active ingredient in acetone/water (50:50) solution containing 0.5% Tween 20 (polyoxyethylene sorbitan monolaurate, CAS RN 9005-64-5). The test plants are then grown in a glasshouse under controlled conditions in a glasshouse (at 24/16° C., day/night; 14 hours light; 65% humidity) and watered twice daily. After 13 days for pre and post-emergence, the test is evaluated (100=total damage to plant; 0=no damage to plant). Lolium perenne (LOLPE), Alopecurus myosuroides (ALOMY), Echinochloa crus-galli (ECHCG), Avena fatua (AVEFA) Post-Emergence Activity

[4] = test system: Echinochloa crus-galli (ECHCG); assay: as above; settings: 312 h, evaluated after 13 days, 100=total damage to plant, 0=no damage
Protocol: as §1

Avena fatua (AVEFA) [5] = assay: as above; settings: 312 h, evaluated after 13 days, 100=total damage to plant, 0=no damage
Protocol: as §1

Lolium perenne (LOLPE) [6] = assay: as above; settings: 312 h, evaluated after 13 days, 100=total damage to plant, 0=no damage
Protocol: as §1

[7] = test system: Alopecurus myosuroides (ALOMY); assay: Pre-emergence herbicidal activity, glasshouse pot test; settings: rate not printed (columns shifted), evaluated after 13 days, 100=total damage to plant, 0=no damage
Protocol: as §1, with “Pre-Emergence” for “Post-Emergence”

[8] = test system: Echinochloa crus-galli (ECHCG); assay: as above; settings: rate not printed (columns shifted), evaluated after 13 days, 100=total damage to plant, 0=no damage
Protocol: as §1, with “Pre-Emergence” for “Post-Emergence”

Avena fatua (AVEFA) [9] = assay: as above; settings: rate not printed (columns shifted), evaluated after 13 days, 100=total damage to plant, 0=no damage
Protocol: as §1, with “Pre-Emergence” for “Post-Emergence”

Lolium perenne (LOLPE) [10] = assay: as above; settings: rate not printed (columns shifted), evaluated after 13 days, 100=total damage to plant, 0=no damage
Protocol: as §1, with “Pre-Emergence” for “Post-Emergence”

SMILES | Winter Wheat (Hereward) (damage to plant) [1] | Winter Wheat (Hereward) + cloquintocet mexyl (damage to plant) [2] | pest or weed control at 250 g/ha [3] | pest or weed control at 250 g/ha [4] | pest or weed control at 250 g/ha (Avena fatua (AVEFA) [5]) | pest or weed control at 250 g/ha (Lolium perenne (LOLPE) [6]) | Pre-Emergence Activity ALOMY (damage to plant) [7] | Pre-Emergence Activity ECHCG (damage to plant) [8] | Pre-Emergence Activity AVEFA (damage to plant) (Avena fatua (AVEFA) [9]) | Pre-Emergence Activity LOLPE (damage to plant) (Lolium perenne (LOLPE) [10])
Cc1sc(-c2ccc(C(C)C)cc2)nc1C1C(=O)C/C(=C\C2CCOCC2)C1=O (centres unmarked) [Compound A1] | 20 | 0 | 10% | 10% | 0% | 0% | 10 | 50 | 0 | 10
Cc1sc(COc2ccc(Cl)cc2)nc1C1C(=O)CC(CC2CCOCC2)C1=O (centres unmarked) [Compound A2] |  |  | 10% | 20% | 0% | 10% |  |  |  | 
Cc1sc(COc2ccc(Cl)cc2)nc1C1C(=O)C/C(=C\C2CCOCC2)C1=O (centres unmarked) [Compound A3] |  |  | 10% | 20% | 0% | 0% |  |  |  | 
Cc1sc(-c2ccc(Br)cn2)nc1C1C(=O)C/C(=C\C2CCOCC2)C1=O (centres unmarked) [Compound A4] |  |  | 20% | 70% | 0% | 0% |  |  |  | 
Cc1sc(-c2ccc(Cl)cc2)cc1C1C(=O)CC(CC2CCOC2)C1=O (centres unmarked) [Compound A5] |  |  | 50% | 80% | 50% | 30% |  |  |  | 
Cc1sc(-c2ccc(Cl)cc2)cc1C1C(=O)CC(CC2CCOCC2)C1=O (centres unmarked) [Compound A6] | 10 | 0 | 50% | 60% | 0% | 0% |  |  |  | 
CCc1sc(-c2ccc(Cl)cc2)nc1C1C(=O)C/C(=C\C2CCOCC2)C1=O (centres unmarked) [Compound A7] | 90 | 40 | 90% | 100% | 100% | 60% | 70 | 100 | 70 | 80
Cc1cnc(-c2ccc(Cl)cc2)nc1C1C(=O)CC(CC2CCOCC2)C1=O (centres unmarked) [Compound A8] | 20 | 0 | 50% | 90% | 50% | 50% | 50 | 100 | 60 | 80
Cc1cnc(-c2ccc(Cl)cc2)nc1C1C(=O)C/C(=C\C2CCOCC2)C1=O (centres unmarked) [Compound A9] | 50 | 0 | 20% | 100% | 60% | 40% | 10 | 100 | 50 | 70
